Measured values from PubChem BioAssay AID1259407 (Chemical Carcinogenesis Research Information System (CCRIS), 2018).
The source made the active and inactive calls. The rule behind the calls is not given here.

System: CCRIS mutagenicity, Ames/micronucleus/aberration tests
Assay: CCRIS mutagenicity studies
[1] = Test System: AMES SALMONELLA TYPHIMURIUM, Strain/Indicator: TA98, Metabolic Activation: NONE, Method: PREINCUBATION
[2] = Test System: AMES SALMONELLA TYPHIMURIUM, Strain/Indicator: TA100, Metabolic Activation: NONE, Method: PREINCUBATION
[3] = Test System: AMES SALMONELLA TYPHIMURIUM, Strain/Indicator: TA98, Metabolic Activation: NONE, Method: STANDARD PLATE
[4] = Test System: AMES SALMONELLA TYPHIMURIUM, Strain/Indicator: TA100, Metabolic Activation: NONE, Method: STANDARD PLATE
[5] = Test System: AMES SALMONELLA TYPHIMURIUM, Strain/Indicator: TA1535, Metabolic Activation: NONE, Method: STANDARD PLATE
[6] = Test System: AMES SALMONELLA TYPHIMURIUM, Strain/Indicator: TA1535, Metabolic Activation: RAT, LIVER, S-9, AROCLOR 1254, Method: STANDARD PLATE
[7] = Test System: AMES SALMONELLA TYPHIMURIUM, Strain/Indicator: TA1535, Metabolic Activation: NONE, Method: PREINCUBATION
[8] = Test System: AMES SALMONELLA TYPHIMURIUM, Strain/Indicator: TA1537, Metabolic Activation: NONE, Method: PREINCUBATION

For O=C(O)C(=O)C(=O)O, the mutagenic call (Test System: AMES SALMONELLA TYPHIMURIUM, Strain/Indicator: TA97, Metabolic Activation: NONE, Method: PREINCUBATION) was “inactive; negative”, the mutagenic call (Test System: AMES SALMONELLA TYPHIMURIUM, Strain/Indicator: TA97, Metabolic Activation: RAT, LIVER, S-9, PHENOBARBITAL AND 5,6-BENZOFLAVONE, Method: PREINCUBATION) was “inactive; negative” and the mutagenic call [1] was “inactive; negative”. For the same compound, the mutagenic call (Test System: AMES SALMONELLA TYPHIMURIUM, Strain/Indicator: TA98, Metabolic Activation: RAT, LIVER, S-9, PHENOBARBITAL AND 5,6-BENZOFLAVONE, Method: PREINCUBATION) was “inactive; negative”, the mutagenic call [2] was “inactive; negative” and the mutagenic call (Test System: AMES SALMONELLA TYPHIMURIUM, Strain/Indicator: TA100, Metabolic Activation: RAT, LIVER, S-9, PHENOBARBITAL AND 5,6-BENZOFLAVONE, Method: PREINCUBATION) was “inactive; negative”. For the same compound, the mutagenic call (Test System: AMES SALMONELLA TYPHIMURIUM, Strain/Indicator: TA102, Metabolic Activation: NONE, Method: PREINCUBATION) was “inactive; negative”, the mutagenic call (Test System: AMES SALMONELLA TYPHIMURIUM, Strain/Indicator: TA102, Metabolic Activation: RAT, LIVER, S-9, PHENOBARBITAL AND 5,6-BENZOFLAVONE, Method: PREINCUBATION) was “inactive; negative” and the mutagenic call (Test System: AMES SALMONELLA TYPHIMURIUM, Strain/Indicator: TA104, Metabolic Activation: NONE, Method: PREINCUBATION) was “inactive; negative”. The mutagenic call (Test System: AMES SALMONELLA TYPHIMURIUM, Strain/Indicator: TA104, Metabolic Activation: RAT, LIVER, S-9, PHENOBARBITAL AND 5,6-BENZOFLAVONE, Method: PREINCUBATION) was “inactive; negative”.
For Nc1ccc([N+](=O)[O-])c(O)c1, the mutagenic call [3] was “inactive; negative”, the mutagenic call [4] was “inactive; negative” and the mutagenic call (Test System: AMES SALMONELLA TYPHIMURIUM, Strain/Indicator: TA100, Metabolic Activation: RAT, LIVER, S-9, AROCLOR 1254, Method: STANDARD PLATE) was “inactive; negative”. The mutagenic call [5] was “inactive; negative”, the mutagenic call [6] was “inactive; negative” and the mutagenic call (Test System: AMES SALMONELLA TYPHIMURIUM, Strain/Indicator: TA1537, Metabolic Activation: NONE, Method: STANDARD PLATE) was “inactive; negative”. The mutagenic call (Test System: AMES SALMONELLA TYPHIMURIUM, Strain/Indicator: TA1537, Metabolic Activation: RAT, LIVER, S-9, AROCLOR 1254, Method: STANDARD PLATE) was “inactive; negative” and the mutagenic call (Test System: AMES SALMONELLA TYPHIMURIUM, Strain/Indicator: TA1538, Metabolic Activation: NONE, Method: STANDARD PLATE) was “inactive; negative”.
In the case of C[C@@]1(CO)[C@H](O)CC[C@@]2(C)[C@H]1CC[C@H]1C[C@@H]3C[C@@]12CC[C@]3(O)CO, the mutagenic call (End Point: In vitro chromosomal aberrations, Test System: Human (male) peripheral blood lymphocytes, Metabolic Activation: None) is reported as “active; positive”, the mutagenic call (End Point: In vitro micronucleus, Test System: Human (male) peripheral blood lymphocytes, Metabolic Activation: None) is reported as “active; positive; increased trend in all groups; effect depended on age and genetic stat” and the mutagenic call (Test System: AMES SALMONELLA TYPHIMURIUM, Strain/Indicator: TA102, Metabolic Activation: NONE, Method: STANDARD PLATE) is reported as “inactive; negative”. The mutagenic call (Test System: AMES SALMONELLA TYPHIMURIUM, Strain/Indicator: TA102, Metabolic Activation: RAT, LIVER, S-9, AROCLOR 1254, Method: STANDARD PLATE) was “inactive; negative”, the mutagenic call (Test System: MOUSE LYMPHOMA, Strain/Indicator: L5178Y (TK+/TK-), Metabolic Activation: NONE, Method: SUSPENSION/PLATE) was “active; positive” and the mutagenic call (Test System: UDS RODENT HEPATOCYTES, Strain/Indicator: THY INCORP (NON-S-PHASE), Metabolic Activation: NONE, Method: AUTORADIOGRAPHY) was “inactive; negative”.
COC(=O)c1ccco1 was tested, and the mutagenic call [3] was “inactive; negative” and the mutagenic call [4] was “inactive; negative”.
With c1ccc(N=NNc2ccccc2)cc1 the mutagenic call (End Point: IN VIVO MICRONUCLEUS, Test System: BONE MARROW, Species: MOUSE, Strain/Sex: B6C3F1/MALE, Route: GAVAGE) was “active; positive”, the mutagenic call (Test System: AMES SALMONELLA TYPHIMURIUM, Strain/Indicator: TA98, Metabolic Activation: HAMSTER, LIVER, S-9, AROCLOR 1254 (10%), Method: PREINCUBATION) was “active; positive” and the mutagenic call [1] was “inactive; negative”. For the same compound, the mutagenic call (Test System: AMES SALMONELLA TYPHIMURIUM, Strain/Indicator: TA98, Metabolic Activation: RAT, LIVER, S-9, AROCLOR 1254 (10%), Method: PREINCUBATION) was “active; positive”, the mutagenic call (Test System: AMES SALMONELLA TYPHIMURIUM, Strain/Indicator: TA100, Metabolic Activation: HAMSTER, LIVER, S-9, AROCLOR 1254 (10%), Method: PREINCUBATION) was “active; positive” and the mutagenic call [2] was “inactive; negative”. For the same compound, the mutagenic call (Test System: AMES SALMONELLA TYPHIMURIUM, Strain/Indicator: TA100, Metabolic Activation: RAT, LIVER, S-9, AROCLOR 1254 (10%), Method: PREINCUBATION) was “active; positive”, the mutagenic call (Test System: AMES SALMONELLA TYPHIMURIUM, Strain/Indicator: TA1535, Metabolic Activation: HAMSTER, LIVER, S-9, AROCLOR 1254 (10%), Method: PREINCUBATION) was “inactive; negative” and the mutagenic call [7] was “inactive; negative”. For the same compound, the mutagenic call (Test System: AMES SALMONELLA TYPHIMURIUM, Strain/Indicator: TA1535, Metabolic Activation: RAT, LIVER, S-9, AROCLOR 1254 (10%), Method: PREINCUBATION) was “inactive; negative”, the mutagenic call (Test System: AMES SALMONELLA TYPHIMURIUM, Strain/Indicator: TA1537, Metabolic Activation: HAMSTER, LIVER, S-9, AROCLOR 1254 (10%), Method: PREINCUBATION) was “active; positive” and the mutagenic call [8] was “inactive; negative”. The mutagenic call (Test System: AMES SALMONELLA TYPHIMURIUM, Strain/Indicator: TA1537, Metabolic Activation: RAT, LIVER, S-9, AROCLOR 1254 (10%), Method: PREINCUBATION) was “active; positive”.
In the case of O[C@@H]1C=CC=C[C@H]1O, the mutagenic call (Test System: AMES SALMONELLA TYPHIMURIUM, Strain/Indicator: TA97, Metabolic Activation: NONE, Method: STANDARD PLATE) is reported as “inactive; negative”, the mutagenic call [3] is reported as “inactive; negative” and the mutagenic call (Test System: AMES SALMONELLA TYPHIMURIUM, Strain/Indicator: TA98, Metabolic Activation: RAT, LIVER, S-9, AROCLOR 1254, Method: STANDARD PLATE) is reported as “inactive; negative”. The mutagenic call [4] was “inactive; negative”, the mutagenic call [5] was “inactive; negative” and the mutagenic call [6] was “active; positive”. The mutagenic call (Test System: CHINESE HAMSTER V-79, Strain/Indicator: V-79/6-THIOGUANINE, Metabolic Activation: NONE) was “inactive; negative”.
With CC1(C)CCC[C@]2(C)[C@@H](C=O)C(C=O)=CC[C@@H]12 the mutagenic call [3] was “inactive; negative”, the mutagenic call [4] was “inactive; negative” and the mutagenic call (Test System: AMES SALMONELLA TYPHIMURIUM, Strain/Indicator: TA2637, Metabolic Activation: NONE, Method: STANDARD PLATE) was “inactive; negative”. The mutagenic call (Test System: CHINESE HAMSTER V-79, Strain/Indicator: V-79/6-THIOGUANINE (HGPRT), Metabolic Activation: NONE) was “inactive; negative”.
Cc1cc2ncccc2c2nc(N=[N+]=[N-])n(C)c12 was tested, and the mutagenic call (Test System: AMES SALMONELLA TYPHIMURIUM, Strain/Indicator: TA98(1,8-DNP6), Metabolic Activation: NONE, Method: STANDARD PLATE) was “active; positive” and the mutagenic call [3] was “active; positive”.
Cc1cccc(C)c1NC(=O)CN1CCCC1=O was tested, and the mutagenic call [1] was “inactive; negative”, the mutagenic call (Test System: AMES SALMONELLA TYPHIMURIUM, Strain/Indicator: TA98, Metabolic Activation: RAT, LIVER, S-9, SODIUM PHENOBARBITAL AND 5,6-BENZOFLAVONE, Method: PREINCUBATION) was “inactive; negative” and the mutagenic call [2] was “inactive; negative”. For the same compound, the mutagenic call (Test System: AMES SALMONELLA TYPHIMURIUM, Strain/Indicator: TA100, Metabolic Activation: RAT, LIVER, S-9, SODIUM PHENOBARBITAL AND 5,6-BENZOFLAVONE, Method: PREINCUBATION) was “inactive; negative”, the mutagenic call [7] was “inactive; negative” and the mutagenic call (Test System: AMES SALMONELLA TYPHIMURIUM, Strain/Indicator: TA1535, Metabolic Activation: RAT, LIVER, S-9, SODIUM PHENOBARBITAL AND 5,6-BENZOFLAVONE, Method: PREINCUBATION) was “inactive; negative”. For the same compound, the mutagenic call [8] was “inactive; negative”, the mutagenic call (Test System: AMES SALMONELLA TYPHIMURIUM, Strain/Indicator: TA1537, Metabolic Activation: RAT, LIVER, S-9, SODIUM PHENOBARBITAL AND 5,6-BENZOFLAVONE, Method: PREINCUBATION) was “inactive; negative” and the mutagenic call (Test System: E. COLI, Strain/Indicator: WP2 UVRA, Metabolic Activation: NONE, Method: PREINCUBATION) was “inactive; negative”. The mutagenic call (Test System: E. COLI, Strain/Indicator: WP2 UVRA, Metabolic Activation: RAT, LIVER, S-9, SODIUM PHENOBARBITAL AND 5,6-BENZOFLAVONE, Method: PREINCUBATION) was “inactive; negative”.
